Results reported in PubChem BioAssay (NCI).
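48-hour exposure; five concentrations; linearly interpolated endpoints. At the TGI there is no net growth.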 *1 amine or outer side, *2 acyl side, *3 side chain or, on linkers, in order; H or OH if unused. Where a SMILES comes first, the peptide text is derived from it. Bridges are numbered along the chain shown (N, C = ends). [ ]: non-standard residue; d: D form. The star is where a group is joined. X34 = O=C(C(CCCCNO[*:3])N[*:1])[*:2]; Fmoc = O=C(OCC1c2ccccc2-c2ccccc21)*

Legend:
Assay in all cases: DTP human tumour cell line panel, 48 h
EKVX NSCLC = system: EKVX NSCLC
SF-268 CNS = system: SF-268 CNS
SR leukemia = system: SR leukemia
SF-539 CNS = system: SF-539 CNS
RPMI-8226 leukemia = system: RPMI-8226 leukemia
HT29 colon = system: HT29 colon
HCT-15 colon = system: HCT-15 colon
U251 CNS = system: U251 CNS
SW-620 colon = system: SW-620 colon
OVCAR-3 ovarian = system: OVCAR-3 ovarian
MOLT-4 leukemia = system: MOLT-4 leukemia
HOP-62 NSCLC = system: HOP-62 NSCLC
CAKI-1 renal = system: CAKI-1 renal
MDA-MB-231 breast = system: MDA-MB-231 breast
HL-60(TB) leukemia = system: HL-60(TB) leukemia
OVCAR-4 ovarian = system: OVCAR-4 ovarian
K-562 leukemia = system: K-562 leukemia
SK-MEL-28 melanoma = system: SK-MEL-28 melanoma

| SMILES | TGI (EKVX NSCLC) [µM] | TGI (SF-268 CNS) [µM] | TGI (SR leukemia) [µM] | TGI (SF-539 CNS) [µM] | TGI (RPMI-8226 leukemia) [µM] | TGI (HT29 colon) [µM] | TGI (HCT-15 colon) [µM] | TGI (U251 CNS) [µM] | TGI (SW-620 colon) [µM] | TGI (OVCAR-3 ovarian) [µM] | TGI (MOLT-4 leukemia) [µM] | TGI (HOP-62 NSCLC) [µM] | TGI (CAKI-1 renal) [µM] | TGI (MDA-MB-231 breast) [µM] | TGI (HL-60(TB) leukemia) [µM] | TGI (OVCAR-4 ovarian) [µM] | TGI (K-562 leukemia) [µM] | TGI (SK-MEL-28 melanoma) [µM] |
| --- | --- | --- | --- | --- | --- | --- | --- | --- | --- | --- | --- | --- | --- | --- | --- | --- | --- | --- |
| O=C(NNC(=S)NCc1ccccc1)c1csc(NC(=S)NC2CCCCC2)n1 | > 100 | > 100 | > 100 | > 100 | 58.2 | 12.1 | > 100 | > 100 | > 100 | > 100 | > 100 | > 100 | > 100 | 83.3 | > 100 | – | – | – |
| CC(C)(C)OC(=O)NCCNCCNc1ccccc1 | > 100 | – | > 100 | > 100 | > 100 | > 100 | > 100 | > 100 | > 100 | > 100 | > 100 | > 100 | > 100 | > 100 | – | > 100 | > 100 | > 100 |
| CCN(CC)C(=S)SC(C(=O)Nc1nnc(-c2ccccc2)o1)c1ccccc1 (stereo not drawn) | 49.5 | – | 70.7 | 65.9 | > 100 | 41.8 | 24.5 | 61.4 | > 100 | 41.8 | > 100 | > 100 | 50 | > 100 | – | > 100 | > 100 | 54.6 |
| O=C1NNC2NC(=O)C3(NN2C1=O)c1ccccc1-c1ccccc13 (stereo not drawn) | > 100 | > 100 | > 100 | > 100 | – | > 100 | > 100 | > 100 | > 100 | > 100 | – | > 100 | > 100 | > 100 | > 100 | > 100 | > 100 | – |
| COC1(OC)C=CC2C1C1C=CC2C1(OC)OC (stereo not drawn) | > 100 | > 100 | > 100 | > 100 | > 100 | > 100 | > 100 | > 100 | > 100 | > 100 | > 100 | > 100 | > 100 | > 100 | – | > 100 | > 100 | > 100 |
| CCCCCCCCCCCCCCCCCCNc1nc(=O)n(C2CC(O)C(COP(=O)(O)OCC3OC(n4ccc(N)nc4=O)C(O)C3O)O2)cc1F (stereo not drawn) | > 100 | > 100 | > 100 | > 100 | > 100 | 29.2 | 38 | > 100 | > 100 | > 100 | > 100 | > 100 | > 100 | 72.5 | – | > 100 | > 100 | > 100 |
| ON[C@H]1C[C@@H](n2cnc3c(NC4CC4)ncnc32)[C@H](O)[C@@H]1O | > 100 | > 100 | > 100 | > 100 | > 100 | > 100 | > 100 | > 100 | > 100 | > 100 | > 100 | > 100 | > 100 | > 100 | – | > 100 | > 100 | > 100 |
| N#CC(C#N)N=Nc1ccc(-c2nc3ccccc3o2)cc1 | 29.9 | > 100 | 42.6 | 26.1 | – | 27.8 | 38.5 | 29.7 | 28.1 | 9.77 | 37 | 38.5 | – | 61.7 | 40.2 | > 100 | 54.7 | 32.3 |
| ONC1=Nc2ccccc2C(=S)N2CSCC12 (stereo not drawn) | > 100 | > 100 | 89 | – | > 100 | > 100 | > 100 | > 100 | > 100 | > 100 | > 100 | > 100 | > 100 | > 100 | – | > 100 | > 100 | > 100 |
| O=C1c2ccccc2C2C1C(c1ccccc1)C1(Cc3ccccc3C1=O)C2c1ccccc1 (stereo not drawn) | > 100 | > 100 | > 100 | > 100 | – | > 100 | > 100 | > 100 | > 100 | > 100 | > 100 | > 100 | – | > 100 | 35.6 | > 100 | > 100 | > 100 |
| CC(=O)c1ccc2c(c1)CC1(C2)Cc2ccc3c(c2C1=O)CCC3 (stereo not drawn) | – | > 100 | > 100 | > 100 | > 100 | 31.6 | > 100 | > 100 | > 100 | > 100 | > 100 | > 100 | > 100 | > 100 | 48.3 | > 100 | > 100 | 56.5 |
| Oc1cc(N2CCCC2)ccc1/C=N/N1C(=S)N(c2ccccc2)C(=Nc2ccccc2)C1=Nc1ccccc1 | > 100 | > 100 | > 100 | > 100 | > 100 | > 100 | > 100 | > 100 | > 100 | > 100 | > 100 | > 100 | > 100 | 90.3 | – | – | > 100 | > 100 |
| CCOC(OCC)N1C(=O)C2(C(OCC)OCC)CC3C(OC(=O)N3N)c3cccc1c32 (stereo not drawn) | > 100 | > 100 | > 100 | > 100 | > 100 | > 100 | > 100 | > 100 | > 100 | > 100 | > 100 | > 100 | > 100 | > 100 | > 100 | > 100 | – | > 100 |
| CC(=O)OCC(C)(COC(C)=O)N1C(=O)C2C3c4ccccc4C(c4ccccc43)C2C1=O (stereo not drawn) | > 100 | > 100 | > 100 | > 100 | > 100 | > 100 | > 100 | > 100 | > 100 | > 100 | > 100 | – | > 100 | > 100 | > 100 | – | > 100 | – |
| N=CN=CC(=S)O[C@@H]1C(=O)N2CCC[C@@]23CCCC[C@@H]13 | > 12.5 | > 12.5 | > 12.5 | – | > 12.5 | > 12.5 | > 12.5 | > 12.5 | – | – | – | > 12.5 | > 12.5 | > 12.5 | > 12.5 | > 12.5 | > 12.5 | > 12.5 |
| CSc1nc2c(c(N3CCOCC3)n1)C(O)n1c(nc3ccccc31)S2 (stereo not drawn) | > 100 | > 100 | > 100 | 8.77 | > 100 | > 100 | > 100 | > 100 | > 100 | > 100 | > 100 | > 100 | > 100 | > 100 | > 100 | > 100 | – | – |
| Cc1ccc(OCC2OC(n3cnc4c(Cl)nc(Cl)nc43)CC2Oc2ccc(C)cc2)cc1 (stereo not drawn) | 14.9 | 4.19 | 5.17 | 4.04 | – | 2.91 | 3.27 | 4.91 | > 100 | 6 | 4.27 | 7.37 | 2.96 | 3.99 | 6.53 | 4.45 | – | 7.56 |
| Oc1c(Br)cc(/C=C/c2cccc(/C=C/c3cc(Br)c(O)c(Br)c3)n2)cc1Br | 34 | 32.9 | 18.9 | 26.6 | 27.5 | 25.1 | 26.3 | 21.2 | 50.6 | 31.1 | 14.7 | > 100 | 45.6 | 49.4 | – | 35.7 | 23.7 | 58.6 |
| CC(=O)OC[C@@]12Cc3ccc(C)c(O)c3[C@]1(C)[C@@H](OC(C)=O)[C@]1(O)[C@H]([C@@H](OC(=O)c3ccccc3)[C@@H](C)[C@H]1OC(C)=O)[C@H]2OC(C)=O | > 50 | > 50 | > 50 | > 50 | – | – | > 50 | > 50 | > 50 | > 50 | > 50 | > 50 | > 50 | > 50 | > 50 | > 50 | > 50 | – |
| COc1cc(/C=C\c2nnc(/C=C\c3ccc(O)c(OC)c3)s2)ccc1O | 18.4 | 41.2 | 7.37 | > 26.4 | – | 23.4 | 18.1 | 17.1 | > 23.7 | 10.7 | 10.7 | 42 | 44.2 | > 57.5 | 5.45 | 19.9 | > 21.2 | > 100 |
| CC(=O)n1cc(OP(=O)(Oc2ccccc2)Oc2ccccc2)c2ccccc21 | – | 81.3 | 72.4 | 42.5 | 42.2 | > 100 | > 100 | > 100 | > 100 | 93.6 | 50.9 | – | 54.3 | 86.4 | 50.3 | 73.3 | 67.4 | 86 |
| O/N=C1/CC2(N3CCOCC3)C3CC/C(=N\O)C2CC1(Cc1ccccc1)C3 (stereo not drawn) | > 100 | > 100 | > 100 | > 100 | – | > 100 | > 100 | > 100 | > 100 | > 100 | > 100 | > 100 | > 100 | > 100 | > 100 | > 100 | > 100 | > 100 |
| O=C1OC(C2(O)OC(=O)c3ccccc32)c2ccccc21 (stereo not drawn) | > 100 | > 100 | > 100 | > 100 | > 100 | > 100 | > 100 | > 100 | > 100 | > 100 | > 100 | > 100 | > 100 | > 100 | > 100 | > 100 | – | > 100 |
| COc1ccc(N=NC(=Nc2ccc(Cl)cc2)c2ccc(N(CCC#N)CCC#N)cc2)cc1 | > 100 | > 100 | > 100 | > 100 | > 100 | > 100 | > 100 | > 100 | > 100 | > 100 | 91.6 | > 100 | > 100 | > 100 | – | > 100 | > 100 | > 100 |
| CC(NC(=O)c1ccc(NP(=O)(OCc2ccc([N+](=O)[O-])o2)N(C)CCCCCl)cc1)c1ccc(OCC2CCCCC2)c(C(N)=O)c1 (stereo not drawn) | – | 36.1 | 40.7 | 33.7 | 21.1 | 44.4 | > 100 | 49.9 | 86.8 | 33.9 | 68.8 | 43.4 | > 100 | 35 | 50 | 49.6 | 83.2 | 31.6 |
| CN(C(=O)C1=CCC2(CC1)OCCO2)c1ccccc1I | > 100 | – | > 100 | – | > 100 | > 100 | > 100 | > 100 | > 100 | > 100 | > 100 | > 100 | > 100 | > 100 | > 100 | > 100 | > 100 | > 100 |
| NC(=O)CNC(=O)C1CCCN1C(=O)C1CCCCNOC(=O)CCC(NC(=O)OCC2c3ccccc3-c3ccccc32)C(=O)NC(Cc2c[nH]c3ccccc23)C(=O)N1 (stereo not drawn) (Fmoc-EW[X34]PG-NH2; ester 1-3; configuration not given here) | > 100 | > 100 | > 100 | > 100 | > 100 | > 100 | > 100 | > 100 | > 100 | > 100 | > 100 | > 100 | – | > 100 | > 100 | > 100 | > 100 | > 100 |
